Reference: patent US20010034454A1, “Description anti-mitotic agents which inhibit tubulin polymerization” (BYLOR UNIVERSITY AND ARIZONA DESEASE CONTROL RESEARCH …, priority 1998, published 2001)
≈ marks a conversion by molar mass, not a printed value. Like-named read-outs stand apart in the source and are kept apart here.

How the values were obtained:
[1] = system: P388 leukemia cells; test: Cytotoxic assay with P388 leukemia cells; assay type: cell-based, mouse
Source text: The tubulin polymerization compounds can also be tested for their ability to inhibit tumor cell growth.

[2] = system: DU-145; test: Human cancer cell line studies, DU-145; assay type: cell-based; details: Homo sapiens; Prostate DU-145; read-out: GI50
Procedure: (§1) The assay used is described in Monks et al. Briefly, the cell suspensions, diluted according to tho particular cell type and the expected target cell density (5,000-40,000 cells per well based on cell growth characteristics), were added by pipet (100 μl) to 96-well microtiter plates. Inoculates were allowed a preincubation time of 24-28 hours at 37° C. for stabilization. Incubation with the inhibitor compounds lasted for 48 hours in 5% CO2 atmosphere and 100% humidity. Determination of cell growth was done by in situ fixation of cells, followed by staining with a protein-binding dye, sulforhodamine B (SRB), which binds to the basic amino acids of cellular macromolecules. The solubilized stain was measured spectrophotometrically.

[3] = system: FADU; test: Human cancer cell line studies, FADU; assay type: cell-based; details: Homo sapiens; Pharynx-sqam FADU; read-out: GI50
Procedure: as §1

[4] = system: SW1736; test: Human cancer cell line studies, SW1736; assay type: cell-based; details: Homo sapiens, SW-1736; Thyroid ca SW1736; read-out: GI50
Procedure: as §1

[5] = system: SK-N-SH; test: Human cancer cell line studies, SK-N-SH; assay type: cell-based; details: Homo sapiens; Neuroblast SK-N-SH; read-out: GI50
Procedure: as §1

[6] = system: BXPC-3; test: Human cancer cell line studies, BXPC-3; assay type: cell-based; details: Homo sapiens; Pancreas adn BXPC-3; read-out: GI50
Procedure: as §1

[7] = system: T1, tubulin; test: Tubulin polymerization assay; assay type: biochemical, bovine; details: for IC50: purified tubulin […], GTP-induced, 350 nm, final steady-state number for compounds other than 1A and 10A, read-out: IC50 for inhibition of tubulin polymerization
T1 construct: Purified tubulin is obtained from bovine brain cells as described in Hamel and Lin
Procedure: The ability of the various above described compounds to inhibit tubulin polymerization can be determined by in vitro assay. A suitable assay system is that described by Bai et al. A method for purifying tubulin from bovine brain cells is described by Hamel and Lin.
IC50 values for tubulin polymerization were determined according to the procedure described in Bai et al. Purified tubulin is obtained from bovine brain cells as described in Hamel and Lin. Various amounts of inhibitor were preincubated for 15 minutes at 37° C. with purified tubulin. After the incubation period, the reaction was cooled and GTP was added to induce tubulin polymerization. Polymerization was then monitored in a Gilford spectrophotometer at 350 nm. The final reaction mixtures (0.25 ml) contained 1.5 mg/ml tubulin, 0.6 mg/ml microtubule-associated proteins (MAPs), 0.5 mM GTP, 0.5 mM MgCl2, 4% DMSO and 0.1 M 4-morpholineethanesulfonate buffer (MES, pH 6.4). […]

[8] = system: NCI-H460; test: Growth inhibitory activity, human cancer cell line NCI-H460 (SRB); assay type: cell-based; details: Homo sapiens; Lung-NSC NCI-H460; read-out: GI50
Procedure: as §1

[9] = P388 mouse leukemia, dosage required to inhibit 50% of cell growth
[10] = Mus musculus, P388, read-out: ED50

| SMILES | ED50 [1, 9] | GI50 [2] | GI50 [3] | GI50 [4] | GI50 [5] | GI50 [6] | IC50 [7] | GI50 [8] | activity against P388 leukemia cells [1] | IC50 [1, 10] | tubulin polymerization inhibition [7] | IC50 ([1]; P388 mouse leukemia, dosage required to inhibit 50% of cell growth, read-out: ED50 (the source's name)) | tubulin polymerization curve at 4 μM ([7]; 4 μM) | polymerization curves at several concentrations ([7]; 4, 10, and 40 μM) |
| --- | --- | --- | --- | --- | --- | --- | --- | --- | --- | --- | --- | --- | --- | --- |
| COc1ccc(/C=C\c2cc(OC)c(OC)c(OC)c2)cc1N(Cc1ccccc1)Cc1ccccc1 [5-[(Z)-2-(3′,4′,5′-trimethoxyphenyl)ethenyl]-2-methoxy-N,N-bis-(phenylmethyl)aniline, reference compound] | 33.9 µg/mL (≈ 68.4 µM) | – | – | – | – | – | – | – | – | – | – | – | – | – |
| COc1ccc(-c2cc3c(OC)ccc(C(=O)c4cc(F)c(F)c(F)c4)c3s2)cc1 [Compound 12A, 7-(3′,4′,5′-trifluorobenzoyl)-2-(4′-methoxyphenyl)-4-methoxybenzo[b]thiophene] | – | > 10 µg/mL | 6.7 µg/mL (≈ 15.6 µM) | > 10 µg/mL | > 10 µg/mL | > 10 µg/mL | > 40 µM | > 10 µg/mL | – | – | – | – | – | – |
| COc1ccc(-c2sc3cc(OC)ccc3c2C(=O)c2cc(OC)cc(OC)c2)cc1 [Compound 3A, 3-(3′,5′-dimethoxybenzoyl)-2-(4′-methoxyphenyl)-6-methoxybenzo[b]thiophene] | >100 µg/mL | – | – | – | – | – | – | – | failed to show measurable activity against the leukemia cells | > 100 µg/mL | no observable tubulin polymerization inhibition activity | – | – | – |
| COc1ccc(-c2sc3cc(OC)ccc3c2C(=O)c2cc(OC)c(O)c(OC)c2)cc1 [Compound 19A, 3-(4′-hydroxy-3′,5′-dimethoxybenzoyl)-2-(4′-methoxyphenyl)-6-methoxybenzo[b]thiophene] | >100 µg/mL | – | – | – | – | – | – | – | failed to show measurable activity against the leukemia cells | > 100 µg/mL | no observable tubulin polymerization inhibition activity | – | – | – |
| COc1ccc(-c2sc3cc(OC)ccc3c2C(=O)c2c(F)c(F)c(F)c(F)c2F)cc1 [Compound 15A, 3-(2′,3′,4′,5′,6′-pentafluorobenzoyl)-2-(4′-methoxyphenyl)-6-methoxybenzo[b]thiophene] | – | 5 µg/mL (≈ 10.8 µM) | 1.3 µg/mL (≈ 2.8 µM) | 4 µg/mL (≈ 8.61 µM) | 1.4 µg/mL (≈ 3.01 µM) | 5.9 µg/mL (≈ 12.7 µM) | > 40 µM | 7.9 µg/mL (≈ 17 µM) | – | – | – | – | – | – |
| COc1ccc(/C=C\c2cc(OC)c(OC)c(OC)c2)cc1N [Compound 33E, (Z)-1-(3′-amino-4′-methoxyphenyl)-2-(3″,4″,5″-trimethoxyphenyl)ethene] | – | 0.00096 µg/mL (≈ 0.00304 µM) | < 0.001 µg/mL | < 0.001 µg/mL | < 0.001 µg/mL | 0.0013 µg/mL (≈ 0.00412 µM) | […] | 0.00068 µg/mL (≈ 0.00216 µM) | – | – | – | – | – | – |
| COc1ccc(-c2sc3cc(OC)ccc3c2C(=O)c2c(OC)cccc2OC)cc1 [Compound 2A, 3-(2′,6′-dimethoxybenzoyl)-2-(4′-methoxyphenyl)-6-methoxybenzo[b]thiophene] | >100 µg/mL | – | – | – | – | – | – | – | failed to show measurable activity against the leukemia cells | – | no observable tubulin polymerization inhibition activity | > 100 µg/mL | – | – |
| COc1ccc(-c2cc3c(OC)ccc(C(=O)c4cc(OC)c(OC)c(OC)c4)c3s2)cc1 [Compound 13A, 7-(3′,4′,5′-trimethoxybenzoyl)-2-(4′-methoxyphenyl)-4-methoxybenzo[b]thiophene] | – | > 10 µg/mL | 7.8 µg/mL (≈ 16.8 µM) | > 10 µg/mL | > 10 µg/mL | > 10 µg/mL | > 40 µM | > 10 µg/mL | – | – | – | – | – | – |
| COc1ccc(-c2sc3cc(OC)ccc3c2C(=O)/C=C/c2cc(OC)c(OC)c(OC)c2)cc1 [Compound 17A, E-3-[3′-(3′,4′,5′-trimethoxyphenyl)cinnamoyl]-2-(4′-methoxyphenyl)-6-methoxybenzo[b]thiophene] | – | 7.5 µg/mL (≈ 15.3 µM) | 1.8 µg/mL (≈ 3.67 µM) | 5.2 µg/mL (≈ 10.6 µM) | 1.3 µg/mL (≈ 2.65 µM) | 2.3 µg/mL (≈ 4.69 µM) | > 40 µM | 3.9 µg/mL (≈ 7.95 µM) | – | – | – | – | – | – |
| COc1cc(/C=C\c2cc(OC)c(OC)c(OC)c2)ccc1N=[N+]=[N-] [Compound 30E, (Z)-1-(4′azido-3′-methoxyphenyl)-2-(3″,4″,5″-trimethoxyphenyl)ethene] | – | 0.7 µg/mL (≈ 2.05 µM) | 0.42 µg/mL (≈ 1.23 µM) | 0.45 µg/mL (≈ 1.32 µM) | 0.24 µg/mL (≈ 0.703 µM) | 0.3 µg/mL (≈ 0.879 µM) | 1.5 µM | 0.35 µg/mL (≈ 1.03 µM) | – | – | – | – | – | – |
| COc1ccc(-c2sc3cc(OC)ccc3c2C(=O)c2ccc(N(C)C)cc2)cc1 [Compound 11A, 3-(4′-N,N-dimethylaminobenzoyl)-2-(4′-methoxyphenyl)-6-methoxybenzo[b]thiophene] | – | > 10 µg/mL | > 10 µg/mL | > 10 µg/mL | > 10 µg/mL | > 10 µg/mL | > 40 µM | > 10 µg/mL | – | – | – | – | – | – |
| COc1ccc2c(c1)CCC=C2C(=O)c1cc(OC)c(OC)c(OC)c1 [Compound 26D, 1-(3′,4′,5′-trimethoxybenzoyl)-6-methoxy-3,4-dihydronaphthalene] | – | 0.0038 µg/mL (≈ 0.0107 µM) | 0.0013 µg/mL (≈ 0.00367 µM) | 0.0048 µg/mL (≈ 0.0135 µM) | < 0.001 µg/mL | 0.003 µg/mL (≈ 0.00846 µM) | 1.7 µM | 0.0033 µg/mL (≈ 0.00931 µM) | – | – | – | – | total flat | – |
| COc1ccc(-c2sc3cc(OC)ccc3c2C(=O)c2cc(F)c(F)c(F)c2)cc1 [Compound 14A, 3-(3′,4′,5′-trifluorobenzoyl)-2-(4′-methoxyphenyl)-6-methoxybenzo[b]thiophene] | – | > 10 µg/mL | 13.6 µg/mL (≈ 31.7 µM) | > 10 µg/mL | > 10 µg/mL | > 10 µg/mL | > 40 µM | > 10 µg/mL | – | – | – | – | – | – |
| CCOc1ccc(-c2sc3cc(OCC)ccc3c2C(=O)c2cc(OC)c(OC)c(OC)c2)cc1 [Compound 18A, 3-(3′,4′,5′-trimethoxybenzoyl)-2-(4′-ethoxyphenyl)-6-ethoxybenzo[b]thiophene] | – | 3.6 µg/mL (≈ 7.31 µM) | 0.6 µg/mL (≈ 1.22 µM) | 2.3 µg/mL (≈ 4.67 µM) | 0.33 µg/mL (≈ 0.67 µM) | 1.6 µg/mL (≈ 3.25 µM) | > 40 µM | 1.4 µg/mL (≈ 2.84 µM) | – | – | – | – | – | – |
| COc1ccc2c(c1)CCC=C2c1cc(OC)c(OC)c(OC)c1CO [Compound 25D, 1-(hydroxymethyl-3′,4′,5′-trimethoxyphenyl)-6-methoxy-3,4-dihydronaphthalene] | – | 2.6 µg/mL (≈ 7.29 µM) | 0.51 µg/mL (≈ 1.43 µM) | 2.1 µg/mL (≈ 5.89 µM) | 0.3 µg/mL (≈ 0.842 µM) | 0.53 µg/mL (≈ 1.49 µM) | > 40 µM | 1.5 µg/mL (≈ 4.21 µM) | – | – | – | – | – | – |
| CCOc1c(OC)cc(C(=O)c2c(-c3ccc(OC)cc3)sc3cc(OC)ccc23)cc1OC [Compound 10A, 3-(4′-ethoxy-3′,5′-dimethoxybenzoyl)-2-(4′-methoxyphenyl)-6-methoxybenzo[b]thiophene] | – | 0.35 µg/mL (≈ 0.731 µM) | 0.31 µg/mL (≈ 0.648 µM) | 0.31 µg/mL (≈ 0.648 µM) | 0.17 µg/mL (≈ 0.355 µM) | 0.22 µg/mL (≈ 0.46 µM) | – | 0.32 µg/mL (≈ 0.669 µM) | – | – | clear inhibition of tubulin polymerization of rate, but not of plateau | – | – | nearly identical |
